The source of these data is publication PMC8815882, “Screening the pandemic response box identified benzimidazole carbamates, Olorofim and ravuconazole as promising drug candidates for the treatment of eumycetoma” (PLoS Neglected Tropical Diseases, 2022).

Each structure is given as a SMILES string. Where two headings read alike, the source gives them in different places.

What is called IC50 is the concentration that inhibits the measured activity by half. One may read the IC90 as the point of the concentration-response curve where the effect stands at 90%.

Assay [1] deals with M. mycetomatis genome strain MM55. Put plainly: CLSI M38-A2 based in vitro susceptibility screening (XTT or resazurin), growth at fixed concentration. The format is cell-based, Madurella mycetomatis. The note with it: Madurella mycetomatis. (In general: Tetrazolium assays rely on reduction of a dye to a coloured formazan, in cell work by metabolically active cells.)
The test system of the next assay is M. mycetomatis MM55. In words: IC50 determination, 2-fold dilution series 16 to 0.03125 μM. The class given is cell-based, Madurella mycetomatis.
Setting [2] is: 25 uM, mean of three replicates, read-out: Percentage survival at 25um, 25 uM mean.
[3] abbreviates: 25 uM, replicate A, read-out: Percentage survival at 25um, 25 um A.
Where [4] appears, read: 25 uM, replicate B, read-out: Percentage survival at 25um, 25 uM B.
The mark [5] stands for this setting: 25 uM, replicate C, read-out: Percentage survival at 25um, 25 uM C.
Setting [6] is: mean of three replicates, read-out: Percentage survival at 100um, 100 uM mean.
The mark [7] stands for this setting: replicate 1, read-out: Percentage survival at 100um, 100 uM A (first replicate column).
The mark [8] stands for this setting: replicate 2, read-out: Percentage survival at 100um, 100 uM A (second replicate column).
Setting [9] is: replicate 3, read-out: Percentage survival at 100um, 100 uM A (third replicate column).
[10] abbreviates: Madurella mycetomatis, MM55, mean of three replicates; read-out: IC50 mean.
The mark [11] stands for this setting: Madurella mycetomatis, MM55, mean of three replicates; read-out: IC90 mean.
Setting [12] is: Madurella mycetomatis, MM55; replicate 1; read-out: IC50 1 um.
The mark [13] stands for this setting: Madurella mycetomatis, MM55; replicate 1; read-out: IC90 1 um.
Where [14] appears, read: Madurella mycetomatis, MM55; replicate 2; read-out: IC50 2 um.
The mark [15] stands for this setting: Madurella mycetomatis, MM55; replicate 2; read-out: IC90 2 um.
[16] abbreviates: Madurella mycetomatis, MM55; replicate 3; read-out: IC50 3 um.
Where [17] appears, read: Madurella mycetomatis, MM55; replicate 3; read-out: IC90 3 um.

For the compound `FC(F)(F)Oc1ccc(Nc2ccc3cccc(Cl)c3n2)cc1` [MMV1581032], the activity at 25 µM in assay [1] (setting [2]) is -0.326%; in assay [1] (setting [3]), -12.4%; in assay [1] (setting [4]), 8.52%; in assay [1] (setting [5]), 2.93%. Moreover, the activity at 100 µM in assay [1] (setting [6]) was 0.711%; in assay [1] (setting [7]), -4.67%; in assay [1] (setting [9]), 5.8%. Further, the Percent fungal survival at 100 µM in assay [1] (setting [8]) turned out to be 1%. Further, in the assay on M. mycetomatis MM55, the “Drug static or cidal” value was “Static”. The half-maximal inhibitory concentration (IC50) in the assay with M. mycetomatis MM55 (setting [10]), in the assay with M. mycetomatis MM55 (setting [12]), in the assay on M. mycetomatis MM55 (setting [14]) and in the assay on M. mycetomatis MM55 (setting [16]) was greater than 25 µM in each case. Besides, the IC90 in the assay on M. mycetomatis MM55 (setting [11]), with M. mycetomatis MM55 (setting [13]), with M. mycetomatis MM55 (setting [15]) and in the assay with M. mycetomatis MM55 (setting [17]) was greater than 25 µM throughout.
`N#Cc1c(F)c(Cl)c(NCc2ccccc2)c(C#N)c1F` [MMV1582496]: the activity at 25 µM was 4.98% in assay [1] (setting [2]), 2% in assay [1] (setting [3]), -0.68% in assay [1] (setting [4]) and 13.6% in assay [1] (setting [5]). Moreover, the activity at 100 µM was 2.09% in assay [1] (setting [6]), -0.676% in assay [1] (setting [7]) and 5.72% in assay [1] (setting [9]). The Percent fungal survival at 100 µM in assay [1] (setting [8]) worked out at 1.24%. In the assay on M. mycetomatis MM55, the “Drug static or cidal” value is reported as “Static”. Further, the IC50 in the assay on M. mycetomatis MM55 (setting [10]) was 15.2 µM; in the assay with M. mycetomatis MM55 (setting [12]) it was 13.2 µM; in the assay on M. mycetomatis MM55 (setting [14]) it was 15.8 µM; in the assay on M. mycetomatis MM55 (setting [16]) it was 16.5 µM. In addition, the IC90 with M. mycetomatis MM55 (setting [11]) was 23.6 µM; in the assay with M. mycetomatis MM55 (setting [13]) it was 23.1 µM; with M. mycetomatis MM55 (setting [15]), 23.6 µM; in the assay with M. mycetomatis MM55 (setting [17]), 24.2 µM.
On to `CCOC(=O)Nc1cc(NC(C)CC(C)CN(CC)CC)c2nc(-c3ccccc3)c(-c3ccccc3)nc2n1` (centres unmarked) [MMV1633967], for which the activity at 25 µM was -1.71% in assay [1] (25 uM, mean, read-out: Percentage survival at 25um, 25 uM mean); -4.99% in assay [1] (setting [3]); 0.0169% in assay [1] (setting [4]); -0.146% in assay [1] (setting [5]). Also, the activity at 100 µM in assay [1] (mean, read-out: Percentage survival at 100um, 100 uM mean) came out at 60.2%; in assay [1] (replicate (first column), read-out: Percentage survival at 100um, 100 uM A), 73.9%; in assay [1] (replicate (second column), read-out: Percentage survival at 100um, 100 uM A) it was 96.6%; in assay [1] (replicate (third column), read-out: Percentage survival at 100um, 100 uM A) it was 10.1%. Moreover, the “Drug static or cidal” value in the assay with M. mycetomatis MM55 was “Static”. Further, the IC50 is greater than 25 µM in the assay on M. mycetomatis MM55 (Madurella mycetomatis, MM55, mean; read-out: IC50 mean); greater than 25 µM in the assay with M. mycetomatis MM55 (Madurella mycetomatis, MM55; replicate 1; read-out: IC50 1); greater than 25 µM in the assay with M. mycetomatis MM55 (Madurella mycetomatis, MM55; replicate 2; read-out: IC50 2); greater than 25 µM in the assay with M. mycetomatis MM55 (Madurella mycetomatis, MM55; replicate 3; read-out: IC50 3). In addition, the 90% effect concentration (IC90) in the assay with M. mycetomatis MM55 (Madurella mycetomatis, MM55; read-out: IC90 mean) was greater than 25 µM; in the assay with M. mycetomatis MM55 (Madurella mycetomatis, MM55; replicate 1; read-out: IC90 1), greater than 25 µM; in the assay on M. mycetomatis MM55 (Madurella mycetomatis, MM55; replicate 2; read-out: IC90 2) it was greater than 25 µM; with M. mycetomatis MM55 (Madurella mycetomatis, MM55; replicate 3; read-out: IC90 3) it was greater than 25 µM.
With `Nc1c(C(=O)NCc2ccco2)c2nc3ccccc3nc2n1CCN1CCCCC1` [MMV099714], the activity at 25 µM in assay [1] (setting [3]) is 45.3%; in assay [1] (read-out: Percentage survival at 25um, 25 uM B), -3.06%; in assay [1] (read-out: Percentage survival at 25um, 25 uM C), 13%; in assay [1] (read-out: Percentage survival at 25um, 25 uM mean), 18.4%. Moreover, the activity at 100 µM in assay [1] (setting [6]) was 3.55%; in assay [1] (setting [7]) it was -0.102%; in assay [1] (setting [8]), 7.05%; in assay [1] (setting [9]), 3.69%. Moreover, the “Drug static or cidal” value in the assay on M. mycetomatis MM55 was “Static”. The half-inhibitory concentration (IC50) was greater than 25 µM with M. mycetomatis MM55 (Madurella mycetomatis, MM55, read-out: IC50 1 um); greater than 25 µM with M. mycetomatis MM55 (Madurella mycetomatis, MM55, read-out: IC50 2 um); greater than 25 µM with M. mycetomatis MM55 (Madurella mycetomatis, MM55, read-out: IC50 3 um); greater than 25 µM in the assay with M. mycetomatis MM55 (Madurella mycetomatis, MM55, read-out: IC50 mean). The IC90 was greater than 25 µM in the assay with M. mycetomatis MM55 (Madurella mycetomatis, MM55, read-out: IC90 1 um); greater than 25 µM with M. mycetomatis MM55 (Madurella mycetomatis, MM55, read-out: IC90 2 um); greater than 25 µM in the assay with M. mycetomatis MM55 (Madurella mycetomatis, MM55, read-out: IC90 3 um); greater than 25 µM with M. mycetomatis MM55 (Madurella mycetomatis, MM55, read-out: IC90 mean).
